This note sets out measurements from patent US20220041559A1, “BENZO-AND PYRIDO-PYRAZOLES AS PROTEIN KINASE INHIBITORS” (ROTTAPHARM BIOTECH S.R.L., priority 2019, published 2022).

Common to all, as to type: biochemical
One test concerns the target T1, VEGFR2 (KDR) kinase (Homo sapiens, UniProt P35968).
T1 construct: purchased SignalChem
As to the kind of experiment: ADP-Glo in vitro kinase assay, VEGFR2 kinase inhibition. As to conditions: for IC50: ATP 50 μM, 30 minutes at room temperature; for VEGFR2 kinase inhibition, result in words: Table 19. The protocol:
(§1) The ADP-Glo™ Kinase Assay (Promega), monitoring ADP produced in the kinase reaction, was performed in two steps. In the first one, after the kinase reaction, the ADP-Glo™ Reagent is added to terminate the kinase reaction and deplete the remaining ATP. In the second step, the Kinase Detection Reagent is added to simultaneously convert ADP to ATP (ATPn or newly synthesized ATP) and introduce luciferase and luciferin, allowing the ATPn to be measured (luciferase/luciferin reaction). The amount of light generated correlates with the amount of ATPn (indirectly with the ADP produced in kinase reaction).
(§2) Kinase reaction was performed in 10 μl in a white 384-well plate, inhibitor solutions in DMSO/Kinase buffer (40 mM Tris-Cl, 20 mM MgCl2, 0.1 mg/ml BSA, 50 μM DTT, pH 7.5) and VEGFR2 (KDR) kinase in Kinase buffer (SignalChem, 0.5 ng/μl final concentration in assay) were pre-incubate 15 minutes at room temperature. At the kinase concentration selected, a signal-to negative control ratio >10 was calculated, according to supplier indication. In samples representing the Total enzymatic activity or the negative control (no enzyme), inhibitor solution was replaced by diluents (1 DMSO in kinase buffer, final concentration) or ultra-pure water, respectively.
(§3) The range of inhibitor concentrations was from 10^−11 M up to 3×10^−6 M (final concentration in assay) and each experimental point was performed in duplicate.
(§4) To start the reaction, a substrate/ATP mix (50 μM final concentration, near to ATP Km value) was added to each sample and after 30 minutes incubation at room temperature, ADP-Glo™ Reagent and Kinase Detection Reagent, incubated in sequence according to the respective incubation time and supplier indication, allowed to stop and develop the kinase reaction. The luminescence was measured with a plate-reading luminometer (Envision 2104 Multilabel reader, PerkinElmer). The percentage of inhibition was calculated towards the Total enzymatic activity and the corresponding curves were analyzed by non linear curve fitting (GraphPad software, version 7 for Windows), allowing to calculate the IC50 value±standard error of the value

The target in the next test is T2, FYN (Homo sapiens, UniProt P06241).
T2 construct: purchased CarnaBioscience
T2 sequence (P06241 whole entry): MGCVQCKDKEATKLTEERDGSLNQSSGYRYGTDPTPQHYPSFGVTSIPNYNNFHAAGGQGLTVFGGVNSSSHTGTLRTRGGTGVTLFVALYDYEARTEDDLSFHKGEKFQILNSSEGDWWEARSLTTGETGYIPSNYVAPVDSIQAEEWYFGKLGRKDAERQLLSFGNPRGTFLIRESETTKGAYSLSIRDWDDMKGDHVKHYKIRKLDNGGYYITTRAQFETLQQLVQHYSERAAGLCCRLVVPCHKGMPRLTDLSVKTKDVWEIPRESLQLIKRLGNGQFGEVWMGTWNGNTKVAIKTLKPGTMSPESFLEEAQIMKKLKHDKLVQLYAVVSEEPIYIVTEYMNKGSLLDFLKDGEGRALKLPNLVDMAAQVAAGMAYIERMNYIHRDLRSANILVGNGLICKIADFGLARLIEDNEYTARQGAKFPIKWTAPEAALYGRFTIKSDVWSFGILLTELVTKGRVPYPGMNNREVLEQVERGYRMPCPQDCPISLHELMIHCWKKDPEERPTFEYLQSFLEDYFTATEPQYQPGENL
The experiment in a line: Z'-LYTE in vitro kinase assay, FYN kinase inhibition. As to conditions: near-Km ATP, 60 minutes at 25° C. The procedure:
Assays to determine the kinase inhibitory activity of compounds were performed using an automatic liquid handling device (Microlab STAR Hamilton) and Z′-LYTE™ Kinase Assay Platform (Invitrogen), a Fluorescence Resonance Energy Transfer (FRET)-based assay platform compatible with high-throughput screening (HTS) applications. The assay employs a fluorescence-based, coupled-enzyme format and utilizes the differential sensitivity of phosphorylated and non-phosphorylated peptides to proteolytic cleavage.
Test compounds were evaluated towards active FYN (CarnaBioscience). The enzyme was incubated in a 384 low-volume microplate with a synthetic peptide-substrate, ATP and different inhibitor concentrations, ranging from 10^−10 M up to 10^−5 M final concentration. Samples representing the 0% inhibition (or total enzymatic activity) were in the presence of compound diluent (1% DMSO final) in Reaction Buffer (50 mM Hepes, 10 mM MgCl2, 1 mM EGTA, 0.01% Brij-35, pH 7.5).
A near-Km ATP concentrations for the kinase and an optimal enzyme concentration that phosphorylates 20-40% of the Z′-LYTE™ Tyr 2 Peptide in a one-hour incubation, were selected. All reagents were diluted in reaction buffer and the kinase reaction was carried out in a total volume of 10 μl, for 60 minutes at 25° C. The 0% Phosphorylation (i.e. no ATP) and 100% Phosphorylation (i.e. synthetically phosphorylated peptide supplied) Assay Controls, included in each plate, allowed to calculate the percent phosphorylation achieved in the specific reaction well. The 0% Inhibition and 0% Phosphorylation (i.e. 100% Inhibition) Controls define the dynamic range in the screen. At the end of incubation, a secondary reaction (the Development Reaction) started by adding 5 μl of Development Reagent, containing a site-specific protease that recognizes and cleaves non-phosphorylated peptides, and was interrupted after 60 minutes with 5 μl/sample of Stop Reagent. Measurement of the Coumarin (Ex. 400 nm, Em. 460 nm) and Fluorescein (Ex. 400 nm, Em. 535 nm) emission signals were performed by a fluorescence plate reader (Envision, PerkinElmer).
Results are expressed as percentage of inhibition and the IC50 values were calculated by non-linear curve fitting using GraphPad™ Prism software.

The target in a further test is EGFR (Homo sapiens, UniProt P00533). As to the kind of experiment: ADP-Glo in vitro kinase assay, EGFR kinase inhibition. Also on record: purchased SignalChem. The settings on record: for IC50: ATP 10 μM, 30 minutes at room temperature; for EGFR kinase inhibition, result in words: text summary of Table 18. The procedure: as §1
EGFR, sequence (P00533 25-1210): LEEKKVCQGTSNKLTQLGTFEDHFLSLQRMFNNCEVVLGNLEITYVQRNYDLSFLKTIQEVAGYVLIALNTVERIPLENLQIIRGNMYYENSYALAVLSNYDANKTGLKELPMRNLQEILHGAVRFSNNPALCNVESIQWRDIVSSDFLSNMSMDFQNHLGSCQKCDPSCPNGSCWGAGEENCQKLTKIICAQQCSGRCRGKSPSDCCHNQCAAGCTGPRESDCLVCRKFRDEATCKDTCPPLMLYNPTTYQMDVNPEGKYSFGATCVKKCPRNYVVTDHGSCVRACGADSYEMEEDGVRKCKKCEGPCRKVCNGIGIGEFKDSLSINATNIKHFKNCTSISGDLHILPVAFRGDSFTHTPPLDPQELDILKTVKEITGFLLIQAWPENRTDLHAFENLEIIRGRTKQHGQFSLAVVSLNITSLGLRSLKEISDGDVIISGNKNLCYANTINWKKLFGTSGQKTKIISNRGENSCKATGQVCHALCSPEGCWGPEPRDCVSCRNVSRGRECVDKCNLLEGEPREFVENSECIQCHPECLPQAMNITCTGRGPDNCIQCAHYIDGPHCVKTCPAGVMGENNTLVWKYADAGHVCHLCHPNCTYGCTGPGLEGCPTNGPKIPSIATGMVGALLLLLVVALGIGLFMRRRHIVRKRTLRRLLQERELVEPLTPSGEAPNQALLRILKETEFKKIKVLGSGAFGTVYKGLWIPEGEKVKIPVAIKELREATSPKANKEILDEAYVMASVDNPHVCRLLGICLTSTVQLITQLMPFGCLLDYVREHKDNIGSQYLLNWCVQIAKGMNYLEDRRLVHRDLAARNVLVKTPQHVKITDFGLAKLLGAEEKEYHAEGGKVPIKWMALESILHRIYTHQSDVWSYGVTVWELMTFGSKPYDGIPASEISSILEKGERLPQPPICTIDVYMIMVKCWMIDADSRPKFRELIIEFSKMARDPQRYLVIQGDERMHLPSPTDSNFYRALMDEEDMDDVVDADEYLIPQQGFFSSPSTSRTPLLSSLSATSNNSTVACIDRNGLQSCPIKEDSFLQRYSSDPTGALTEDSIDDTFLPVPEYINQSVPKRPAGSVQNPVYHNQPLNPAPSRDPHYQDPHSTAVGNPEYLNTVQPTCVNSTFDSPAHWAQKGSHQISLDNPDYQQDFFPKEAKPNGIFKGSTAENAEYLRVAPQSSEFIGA
as §2, with “EGFR” for “VEGFR2 (KDR)”, “2.5” for “0.5”, “selected” for “selected,”, “activity (no inhibitor)” for “activity”
as §3
as §4, with “mix (ATP 10” for “mix (50”, “the estimate.” for “the value”
(ADP-Glo turns the ADP formed in a reaction into a luminescent signal.)

Some results are limits rather than exact numbers.

T1 sequence (P35968 20-1356): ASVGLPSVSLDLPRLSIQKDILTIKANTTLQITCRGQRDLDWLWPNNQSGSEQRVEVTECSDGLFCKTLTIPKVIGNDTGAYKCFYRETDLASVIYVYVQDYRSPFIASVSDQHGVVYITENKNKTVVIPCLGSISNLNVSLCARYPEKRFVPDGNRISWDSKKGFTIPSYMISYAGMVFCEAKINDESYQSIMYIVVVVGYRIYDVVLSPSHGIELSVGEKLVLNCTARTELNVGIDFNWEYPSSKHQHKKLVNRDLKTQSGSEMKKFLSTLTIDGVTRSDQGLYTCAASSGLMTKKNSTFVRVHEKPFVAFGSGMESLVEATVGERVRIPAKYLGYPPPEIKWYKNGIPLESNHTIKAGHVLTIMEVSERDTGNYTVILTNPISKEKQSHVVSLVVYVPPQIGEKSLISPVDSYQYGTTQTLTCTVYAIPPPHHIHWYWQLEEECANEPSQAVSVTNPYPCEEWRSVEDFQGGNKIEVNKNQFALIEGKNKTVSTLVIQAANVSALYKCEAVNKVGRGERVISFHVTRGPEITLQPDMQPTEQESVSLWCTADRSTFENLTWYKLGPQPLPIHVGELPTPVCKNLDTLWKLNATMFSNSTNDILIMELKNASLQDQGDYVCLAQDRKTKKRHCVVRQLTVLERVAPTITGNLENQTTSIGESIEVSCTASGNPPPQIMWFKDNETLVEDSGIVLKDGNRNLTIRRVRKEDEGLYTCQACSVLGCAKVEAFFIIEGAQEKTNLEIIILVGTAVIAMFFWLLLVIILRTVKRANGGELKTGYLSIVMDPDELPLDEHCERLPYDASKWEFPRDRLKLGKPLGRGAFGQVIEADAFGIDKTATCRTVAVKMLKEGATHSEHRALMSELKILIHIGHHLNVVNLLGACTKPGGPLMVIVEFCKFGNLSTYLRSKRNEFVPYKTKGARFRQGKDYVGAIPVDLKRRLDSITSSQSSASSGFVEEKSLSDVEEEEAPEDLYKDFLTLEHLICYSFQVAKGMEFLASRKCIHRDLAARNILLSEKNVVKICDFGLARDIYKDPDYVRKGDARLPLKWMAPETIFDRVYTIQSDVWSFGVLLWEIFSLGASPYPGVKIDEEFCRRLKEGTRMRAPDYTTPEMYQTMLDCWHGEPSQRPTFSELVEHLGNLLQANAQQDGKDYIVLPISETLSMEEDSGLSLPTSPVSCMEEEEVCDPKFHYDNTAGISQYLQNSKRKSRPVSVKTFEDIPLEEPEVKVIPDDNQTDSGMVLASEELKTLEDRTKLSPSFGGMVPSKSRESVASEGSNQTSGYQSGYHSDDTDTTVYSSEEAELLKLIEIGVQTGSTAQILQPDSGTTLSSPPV

Turning to `CN1CCC(c2ccc(C(=O)Nc3n[nH]c4cc(Nc5c(F)cccc5Cl)ccc34)cc2)CC1` [Compound 1, N-(6-((2-chloro-6-fluorophenyl)amino)-1H-indazol-3-yl)-4-(1-methylpiperidin-4-yl)benzamide], the IC50 against VEGFR2 (KDR) kinase is 105 nM; against FYN it was 104 nM; at EGFR, 102 nM. Further, the “EGFR kinase inhibition, result in words” value at EGFR is recorded as “more active”.
For `Cc1ccc(Nc2ccc3c(NC(=O)c4ccc(C5CCN(C)CC5)cc4)n[nH]c3c2)c(F)c1` [Compound 8, N-(6-((2-fluoro-4-methylphenyl)amino)-1H-indazol-3-yl)-4-(1-methylpiperidin-4-yl)benzamide], the IC50 against VEGFR2 (KDR) kinase is 126 nM; against FYN, 99 nM; on EGFR, not below 1000 nM.
In the case of `CN1CCC(c2ccc(C(=O)Nc3n[nH]c4cc(Nc5ccccc5Cl)ccc34)cc2)CC1` [Compound 14, N-(6-((2-chlorophenyl)amino)-1H-indazol-3-yl)-4-(1-methylpiperidin-4-yl)benzamide], the 50% inhibitory concentration (IC50) at VEGFR2 (KDR) kinase is 58 nM; against FYN, 82 nM; against EGFR, not below 1000 nM.
In the case of `CN1CCC(c2ccc(C(=O)Nc3n[nH]c4nc(Nc5ccccc5)ccc34)cc2)CC1` [Compound 29, 4-(1-methylpiperidin-4-yl)-N-(6-(phenylamino)-1H-pyrazolo[3,4-b]pyridin-3-yl)benzamide], the half-maximal inhibitory concentration (IC50) was 1 nM against VEGFR2 (KDR) kinase, 95 nM against FYN and not below 1000 nM on EGFR. In addition, at VEGFR2 (KDR) kinase, the “VEGFR2 kinase inhibition, result in words” value is on record as “more potent”.
The matching figures for `CN1CCC(c2ccc(C(=O)Nc3n[nH]c4nc(Nc5ccc(C#N)cc5)ccc34)cc2)CC1` [Compound 32, N-(6-((4-cyanophenyl)amino)-1H-pyrazolo[3,4-b]pyridin-3-yl)-4-(1-methylpiperidin-4-yl)benzamide]: 3 nM, 356 nM, not below 1000 nM and “more potent”.
With `CN1CCC(Oc2ccc(C(=O)Nc3n[nH]c4cc(Oc5ccccc5F)ccc34)cc2)CC1` [Compound 37, N-(6-(2-fluorophenoxy)-1H-indazol-3-yl)-4((1-methylpiperidin-4-yl)oxy)benzamide], the half-maximal inhibitory concentration (IC50) is 437 nM at VEGFR2 (KDR) kinase, 388 nM at FYN and not below 1000 nM on EGFR.
Turning to `CN1CCC(c2ccc(C(=O)Nc3n[nH]c4cc(Nc5ccccc5F)ccc34)nc2)CC1` [Compound 39, N-(6((2-fluorophenyl)amino)-1H-indazol-3-yl)-5-(1-methylpiperidin-4-yl)picolinamide], the 50% inhibitory concentration (IC50) at VEGFR2 (KDR) kinase was 533 nM; against FYN it was 181 nM; at EGFR it was not below 1000 nM.
On to `CN1CCC(Oc2ccc(C(=O)Nc3n[nH]c4nc(Nc5ccccc5F)ccc34)cc2)CC1` [Compound 47, N-(6-((2-fluorophenyl)amino)-1H-pyrazolo[3,4-b]pyridin-3-yl)-4((1-methylpiperidin-4-yl)oxy)benzamide], for which, on VEGFR2 (KDR) kinase, the concentration for half-maximal inhibition (IC50) turned out to be 12 nM and the “VEGFR2 kinase inhibition, result in words” value is recorded as “more potent”. Moreover, the IC50 on FYN turned out to be 513 nM. At EGFR, it took 24 nM to reach half-maximal inhibition (IC50) and the “EGFR kinase inhibition, result in words” value is “more active”.

As usually defined, the IC50 is the midpoint of a concentration-inhibition curve. Higher therefore signals a need for much substance.
